Measured values from patent US20250136722A1, “CYTOTOXICITY TARGETING CHIMERAS” (GLAXOSMITHKLINE INTELLECTUAL PROPERTY DEVELOPMENT LIMITED, priority 2021, published 2025).
Several values for one entry are separate records, joined by “and”; a condition that tells them apart may be missing. Equal values may be shown once.

Experiments:
[1] = system: endogenous target monocytes in human PBMC; test: PBMC ex vivo monocyte depletion flow cytometry assay (Example 200); type: cell-based; details: with anti-cotinine antibody SEQ ID NO: 11/12, 18-24 hours, read-out: Ex Vivo Depletion Assay pEC50 (converted)
Protocol: A human PBMC (peripheral blood mononuclear cells) monocyte depletion flow cytometry assay was developed to screen compounds in a 384-well plate format. This assay incorporated endogenous natural killer cells to deplete endogenous target monocytes.
To screen compounds in the human PBMC monocyte depletion flow cytometry assay, 11-point dose-response curves were made from 1 mM stocks in neat DMSO by serially diluting an ARM compound of Formula (I) four-fold into a 384-well plate row-wise. These serially diluted compounds were then stamped into a flat bottom polypropylene 384-well plate (Greiner Bio-One) at 100 nL/well. Fifty microliters of 30 μg/mL anti-cotinine antibody having a heavy chain sequence of SEQ ID NO: 11 and a light chain sequence of SEQ ID NO: 12 (rabbit variable region with human IgG1 Fc domain containing a DE mutation (S239D/1332E)) that had been diluted in assay medium (RPMI 1640 (Gibco) containing 10% fetal bovine serum (Gibco), 1% Glutamax (Gibco) and 1% sodium pyruvate (Corning) was added to the wells of the plate. The plate was centrifuged for 1 min at 500 rpm (revolutions per minute) and then shaken for 5 min at room temperature. The plate was incubated for 15 minutes at 37° C./5% CO2.
Frozen PBMC cells (HemaCare BioResearch) were thawed and centrifuged at 1,200 rpm for 4 minutes. The cells were diluted to a cell density of 2×10^6 cells/mL in assay medium. Fifty microliters of the diluted cells were added to the wells of the plate. The plate was centrifuged for 1 min at 500 rpm and incubated for 18-24 hours at 37° C./5% CO2.
After 18-24 hours incubation, 2 μL of 6.25 μg human FC block (BD Pharmingen) that was diluted in assay medium was added to the wells of the plate. The plate was centrifuged for 1 minute at 500 rpm and then incubated at room temperature for 15 minutes. Five microliters of 750 nM Helix NP NIR (Biolegend) that had been diluted in assay medium was added to the wells of the plate. Nine microliters of antibody cocktail containing 1/5 diluted fluorescein isothiocyanate (FITC) labeled anti-CD45 antibody (Beckman Coulter), PC7 labeled anti-CD14 antibody (Beckman Coulter) and phycoerythrin (PE) anti-CD4 antibody (Beckman Coulter) was then added to the wells of the plate. The plate was centrifuged for 1 min at 500 rpm and incubated for 30 minutes at 4-8° C. Samples from the plate were run on BD FACS Canto II flow cytometer and data was analyzed using FlowJo software.
ARMs compounds of Formula (I) of the invention were tested for the ability to deplete monocytes in the above assay in one or more experimental runs and the results are shown in Table 3 below. Potency of the compounds of the invention is reported as a pEC50 value. The pEC50 value is the negative log of the EC50 value, wherein the EC50 value is the half maximal effective concentration measured in molar (M). For compounds tested in more than one experimental run, the pEC50 value is reported as an average or as the individual values measured

[2] = molecular target: T1, CHOK1 cells engineered to overexpress human CCR2 (Homo sapiens, UniProt P41597); test: Antibody dependent cellular cytotoxicity (ADCC) reporter assay (Example 199); type: cell-based; details: with anti-cotinine antibody SEQ ID NO: 11/12, CHOK1-human CCR2 target cells, Jurkat FcγRIIIa NFAT-luciferase reporter cells, 12-18 hours; for EC50: read-out: ADCC Reporter Assay pEC50 (converted)
T1 construct: expressed in transfected cells; host or cells: CHOK1 cells
How it was run: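 CHOK1-hCCR2 target cells are co-incubated for 12–18 h with Jurkat FcγRIIIa/NFAT-luciferase reporter cells, ARM compound (1 pM–10 μM) and anti-cotinine antibody with a DE-mutant human IgG1 Fc (0.01–200 μg/mL). Luminescence is expressed as signal:background against no-compound wells; EC50 comes from nonlinear fit and is reported as pEC50, averaged across runs.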

[3] = molecular target: Anti-cotinine antibody (SEQ ID NO: 11 / SEQ ID NO: 12, rabbit variable region with human IgG1 Fc domain); test: Binding of anti-cotinine antibody to ARM compounds by SPR, Biacore T200, 37° C. (Example 202); details: pH 7.4, rabbit variable region/human IgG1 Fc antibody captured on protein A
How it was run: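 Antibody captured on protein A chip. Compounds injected (3-fold, 5-point, top 200 nM) at 100 μL/min with 200 s association and 2000 s dissociation, at 37° C. in HEPES pH 7.4 buffer with 1% DMSO. Double-referenced data fit to 1:1 kinetics. Kd = koff/kon, reported as pKd, averaged over runs.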

[4] = molecular target: human alpha1 nicotinic acetylcholine (nACh) receptor (Homo sapiens, UniProt P02708+Q07001); test: Nicotinic acetylcholine receptor antagonism assay, IONFlux automated patch clamp (Example 203); type: cell-based; details: for Emax at 10 µM: maximum percentage antagonism at maximum concentration tested 10 μM; for IC50: nAChR antagonism, ACh stimulated, patch clamp
Chain of human alpha1 nicotinic acetylcholine (nACh) receptor (P02708 21-457): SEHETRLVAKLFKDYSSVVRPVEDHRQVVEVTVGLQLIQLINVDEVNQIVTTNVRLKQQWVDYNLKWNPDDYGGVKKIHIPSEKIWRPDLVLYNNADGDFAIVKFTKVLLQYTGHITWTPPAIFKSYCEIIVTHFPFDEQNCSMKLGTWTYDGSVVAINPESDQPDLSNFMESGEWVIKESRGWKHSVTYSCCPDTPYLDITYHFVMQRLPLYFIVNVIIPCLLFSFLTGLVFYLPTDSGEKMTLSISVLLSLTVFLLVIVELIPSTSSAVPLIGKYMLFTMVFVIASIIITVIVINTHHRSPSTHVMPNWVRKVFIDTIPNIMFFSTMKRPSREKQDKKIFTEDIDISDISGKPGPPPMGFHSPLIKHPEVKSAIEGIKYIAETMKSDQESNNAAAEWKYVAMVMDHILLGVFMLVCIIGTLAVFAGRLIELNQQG
Chain of human alpha1 nicotinic acetylcholine (nACh) receptor (P11230 24-501 partner): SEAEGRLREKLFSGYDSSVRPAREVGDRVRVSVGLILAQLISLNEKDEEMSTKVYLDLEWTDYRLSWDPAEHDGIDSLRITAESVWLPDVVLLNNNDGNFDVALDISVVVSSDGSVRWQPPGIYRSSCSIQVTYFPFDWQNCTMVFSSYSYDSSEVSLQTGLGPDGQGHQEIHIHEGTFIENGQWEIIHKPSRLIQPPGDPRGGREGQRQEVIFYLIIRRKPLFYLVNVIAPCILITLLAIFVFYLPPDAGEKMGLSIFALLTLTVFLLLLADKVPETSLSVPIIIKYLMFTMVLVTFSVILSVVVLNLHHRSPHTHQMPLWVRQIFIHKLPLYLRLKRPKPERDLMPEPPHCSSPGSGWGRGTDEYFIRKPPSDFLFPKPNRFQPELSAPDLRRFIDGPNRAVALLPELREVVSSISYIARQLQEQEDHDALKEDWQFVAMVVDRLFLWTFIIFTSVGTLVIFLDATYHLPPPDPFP
Chain of human alpha1 nicotinic acetylcholine (nACh) receptor (Q07001 22-517): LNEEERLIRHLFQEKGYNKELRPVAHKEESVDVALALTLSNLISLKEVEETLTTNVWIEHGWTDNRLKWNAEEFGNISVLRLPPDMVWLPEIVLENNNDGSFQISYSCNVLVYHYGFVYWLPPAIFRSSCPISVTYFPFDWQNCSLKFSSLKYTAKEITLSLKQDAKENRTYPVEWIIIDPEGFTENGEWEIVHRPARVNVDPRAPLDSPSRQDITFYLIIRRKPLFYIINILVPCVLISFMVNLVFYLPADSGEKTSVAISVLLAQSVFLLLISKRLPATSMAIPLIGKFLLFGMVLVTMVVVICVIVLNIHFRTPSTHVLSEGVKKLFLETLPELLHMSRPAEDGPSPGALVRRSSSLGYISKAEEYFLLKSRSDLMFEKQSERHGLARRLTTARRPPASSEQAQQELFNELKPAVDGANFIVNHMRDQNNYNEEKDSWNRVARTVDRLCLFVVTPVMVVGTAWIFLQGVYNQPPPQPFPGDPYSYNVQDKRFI
How it was run: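 Human α1 nAChR-expressing cells were preincubated with compound (top 10 μM or 100 μM), then stimulated with 10 mM ACh; peak currents were recorded by IONFlux automated patch clamp. Percent inhibition versus ACh-alone control was vehicle- and rundown-corrected, then fitted to give IC50, with maximal antagonism at the top concentration; recordings with control current <500 pA were excluded.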

Row | pKd of Antibody for ARM Compound of Formula (I) [3] | Emax at 10 µM ([4]; read-out: Maximum Response (%)) | IC50 [4] | Compound | EC50 [1] | ADCC Reporter Assay pEC50 [2] | EC50 [2] | Emax at 100 µM ([4]; maximum percentage antagonism at maximum concentration tested 100 μM, read-out: Maximum Response (%))
1 | – | – | – | CC(C)N(C)[C@@H]1CC[C@H](N2CC[C@H](Nc3ncnc4ccc(C(F)(F)F)cc34)C2=O)[C@H](NC(=O)C2CCC(N3CCC(S(=O)(=O)NCCCCCCNC(=O)[C@H]4CC(=O)N(C)[C@@H]4c4cccnc4)CC3)CC2)C1 (single isomer, unassigned) [compound 149] | 0.251 nM | – | – | –
2 | 9.2495 | – | – | CN1C(=O)C[C@H](C(=O)NCCCOCCCNC(=O)CCCC(=O)NC2CCC(C(=O)N[C@@H]3C[C@H](NC(C)(C)C)CC[C@@H]3N3CC[C@H](Nc4ncnc5ccc(C(F)(F)F)cc45)C3=O)CC2)[C@H]1c1cccnc1 (some centres unmarked) [Example 22] | 0.631 nM | 9 and 9.3 | – | –
3 | – | – | – | CC(C)N(C)[C@@H]1CCC(N2CC[C@H](Nc3ncnc4ccc(C(F)(F)F)cc34)C2=O)[C@H](NC(=O)CCOCCOCCOCCOCCNC(=O)[C@H]2CC(=O)N(C)[C@@H]2c2cccnc2)C1 (some centres unmarked) [Example 39] | 2510 nM | – | – | –
4 | 9.4525 | 24.7% | > 10000 nM | CC(C)N(C)[C@@H]1CCC(N2CC[C@H](Nc3ncnc4ccc(C(F)(F)F)cc34)C2=O)[C@H](NC(=O)CCOCCOCCOCCOCCOCCNC(=O)[C@H]2CC(=O)N(C)[C@@H]2c2cccnc2)C1 (some centres unmarked) [Example 40] | 5.01 nM | – | – | –
5 | 9.3615 | 20.1% | > 10000 nM | CC(C)N(C)[C@@H]1CCC(N2CC[C@H](Nc3ncnc4ccc(C(F)(F)F)cc34)C2=O)[C@H](NC(=O)CCOCCOCCOCCOCCOCCOCCNC(=O)[C@H]2CC(=O)N(C)[C@@H]2c2cccnc2)C1 (some centres unmarked) [Example 41] | 2.51 nM | – | – | –
6 | – | – | – | CC(C)N(C)C1CCC(N2CC[C@H](Nc3ncnc4ccc(C(F)(F)F)cc34)C2=O)[C@H](N[C@H]2CC[C@@H](C(=O)NCCOCCOCCOCCOCCNC(=O)[C@H]3CC(=O)N(C)[C@@H]3c3cccnc3)CC2)C1 (some centres unmarked) [Example 67] | 3.98 nM | – | – | –
7 | – | – | – | CC(C)N(C)[C@@H]1CC[C@H](N2CC[C@H](Nc3ncnc4ccc(C(F)(F)F)cc34)C2=O)[C@H](NC(=O)C2CCN(C3CCN(C(=O)CCCCCCCNC(=O)[C@@H]4CC(=O)N(C)[C@H]4c4cccnc4)CC3)CC2)C1 [Example 154, N-((1R,2S,5R)-5-(Isopropyl(methyl)amino)-2-((S)-2-oxo-3-((6-(trifluoromethyl)quinazolin-4-yl)amino)pyrrolidin-1-yl)cyclohexyl)-1′-(8-((2R,3R)-1-methyl-5-oxo-2-(pyridin-3-yl)pyrrolidine-3-carboxamido)octanoyl)-[1,4′-bipiperidine]-4-carboxamide] | 0.501 nM | – | 2.51 nM | –
8 | – | – | – | CC(C)N(CCOCCOCCC(=O)N[C@H]1CC[C@@H](C(=O)N[C@@H]2C[C@H](N(C)C(C)C)CC[C@@H]2N2CC[C@H](Nc3ncnc4ccc(C(F)(F)F)cc34)C2=O)CC1)C(=O)CCNC(=O)[C@H]1CC(=O)N(C)[C@@H]1c1ccccc1 [Example 178] | 0.398 nM | – | – | –
9 | 9.68 | 74% | 2950 nM | CC(C)N(C)[C@@H]1CC[C@H](N2CC[C@H](Nc3ncnc4ccc(C(F)(F)F)cc34)C2=O)[C@H](NC(=O)CCCN2CCC3(CCN(CCCNC(=O)[C@H]4CC(=O)N(C)[C@@H]4c4cccnc4)CC3)CC2)C1 [Example 191, (2S,3S)-N-(3-(9-(4-(((1R,2S,5R)-5-(Isopropyl(methyl)amino)-2-((S)-2-oxo-3-((6-(trifluoromethyl)quinazolin-4-yl)amino)pyrrolidin-1-yl)cyclohexyl)amino)-4-oxobutyl)-3,9-diazaspiro[5.5]undecan-3-yl)propyl)-1-methyl-5-oxo-2-(pyridin-3-yl)pyrrolidine-3-carboxamide] | – | – | 0.424 nM | –
10 | 9.8185 | 4.1% | > 10000 nM | CC(C)N(C)[C@@H]1CC[C@H](N2CC[C@H](Nc3ncnc4ccc(C(F)(F)F)cc34)C2=O)[C@H](NC(=O)[C@H]2CC[C@H](C3CCN(C(=O)CCOCCOCCNC(=O)[C@H]4CC(=O)N(C)[C@@H]4c4cccnc4)CC3)CC2)C1 [compound 73] | – | – | 7.94 nM | –

Row | Compound | pKd of Antibody for ARM Compound of Formula (I) [3] | Emax at 10 µM ([4]; read-out: Maximum Response (%)) | IC50 [4] | EC50 [1] | ADCC Reporter Assay pEC50 [2] | EC50 [2] | Emax at 100 µM ([4]; maximum percentage antagonism at maximum concentration tested 100 μM, read-out: Maximum Response (%))
11 | CC(C)N(C)[C@@H]1CC[C@H](N2CC[C@H](Nc3ncnc4ccc(C(F)(F)F)cc34)C2=O)[C@H](NC(=O)[C@H]2CC[C@H](C(=O)NCCCOCCCCOCCCNC(=O)[C@H]3CC(=O)N(C)[C@@H]3c3cccnc3)CC2)C1 [Example 194, (1 r,4R)-N^1-((1R,2S,5R)-5-(Isopropyl(methyl)amino)-2-((S)-2-oxo-3-((6-(trifluoromethyl)quinazolin-4-yl)amino)pyrrolidin-1-yl)cyclohexyl)-N^4-(3-(4-(3-((2S,3S)-1-methyl-5-oxo-2-(pyridin-3-yl)pyrrolidine-3-carboxamido)propoxy)butoxy)propyl)cyclohexane-1,4-dicarboxamide] | 9.5415 | – | > 100000 nM | – | – | 0.275 nM | 44.9%
